# Measured values reported in US20060046976A1, “Method for increasing the bone mineral density and bone micro-architecture or connectivity of a mammal using N-acylated glucosamines” (priority 2004, published 2006).
# Columns and labels:
# ovariectomised rats = experiment: Femoral and spine BMD by DXA in ovariectomised rats fed GlcNBu; assay type: in vivo, rat; conditions: 200 mg GlcNBu by mouth daily, 6 months
# Description: This investigation was designed to test the effects of GlcNBu on the BMD of the femurs in an ovariectomised rat model. The experiments performed are described as follows.
# FIGS. 1A and 1B show the effect of GlcNBu feeding on femoral BMD with time, over six months, in the ovariectomized rat. Both the top and bottom panels show the mean total designated herein as global BMD of the femurs for the 8 animals in each group, with time. The actual BMD values are shown on the vertical axes. FIG. 1A Glc-O represents the data from the ovariectomised rats fed with glucose and FIG. 1B GlcNBu-O represents data from the ovariectomised rats fed with GlcNBu. The sequential DXA scans for estimating BMD at times 0, 2 months, 4 months and 6 months are illustrated on the horizontal axis and designated as Sequential Scan number 1.0, 2.0. 3.0 and 4.0, respectively.
# Sixteen ovariectomised rats (Charles River Laboratories), approximately 200 g in weight, were randomized into two groups. The control group received 200 mg of glucose, by mouth as single daily doses and the GlcNBu-treated group received 200 mg of GlcNBu by mouth, as single daily doses, for a total period of six (6) months. A similar group of non-ovariectomised animals was fed with GlcNBu or glucose at the same doses. […] Consistent position of the femurs was assured with a pre-determined grid. […]
# [1] = tested on: non-ovariectomised animals; experiment: Wet weight of femurs, non-ovariectomised rats; assay type: in vivo, rat; conditions: oral feeding of GlcNBu, 6 months
# Protocol: (§1) Sixteen ovariectomised rats (Charles River Laboratories), approximately 200 g in weight, were randomized into two groups. The control group received 200 mg of glucose, by mouth as single daily doses and the GlcNBu-treated group received 200 mg of GlcNBu by mouth, as single daily doses, for a total period of six (6) months. A similar group of non-ovariectomised animals was fed with GlcNBu or glucose at the same doses. The feeding of the compounds was done in small amounts of peanut butter which was very acceptable to the rats, which were allowed free access to water and rat chow. The animals had the BMDs of the femurs (total or global BMD) and the lumbar spines were estimated at baseline and then at, approximately 2, 4 and 6 months. Consistent position of the femurs was assured with a pre-determined grid. A Hologic 4500 DXA machine, with small animal software, was employed for the study. The animals were lightly anesthetized for each measurement.
# (§2) At the end of the experiment, the animals were sacrificed, plasma was collected by cardiac puncture, and the femurs removed, fully dissected from adherent tissue and the wet weight was determined. The concentrations of Insulin-like Growth factor I (IGF-1) in the plasma, obtained at the end of the experiment, were determined by a commercial immunological method.
# [2] = tested on: Insulin-like Growth factor I (IGF-1); experiment: Plasma IGF-1 concentration by commercial immunological method; assay type: in vivo, rat; conditions: end of 6 months; ovariectomised GlcNBu fed rats compared to GlcNBu fed non-ovariectomised rats; p=0.044
# Protocol: as §1, §2
# SCW-arthritis rats = experiment: Micro-CT three-dimensional trabecular bone measurements of proximal tibia, SCW-arthritis rats; assay type: in vivo, Lewis type rats
# Description: In this experiment performed and described herein, there were four groups of Lewis type rats, consisting of eight (8) animals in each group. Lewis type rats had experimental arthritis induced by a single intra-peritoneal injection of streptococcal cell wall antigen (SCW). This type of arthritis has an acute and chronic phase and affects mostly the distal joints in the hind limbs of the animals, and, less so, the knees and hips. Groups 1-3, inclusive, had inflammatory arthritis induced. The compound used in the experiment was used to supplement normal rat chow feed on a daily basis. Feed and water were unrestricted. Group I feed was supplemented with the compound shown in formula II, abbreviated as GlcNBu, at a dose of 200mg/kg/day. Group 3 feed was supplemented with GlcNBu at 20 mg/kg/day. At the end of 6 weeks, the animals were sacrificed, the femurs and tibias were excised, fixed in formalin and the BMD, micro-CT measurements, 3-dimentional measurements and two-dimentional subchondral bone analysis were carried out, by the methods detailed below. • BMD. All the dissected femurs and tibiae were scanned with dual energy x-ray absorptiometry (DXA) were measured at the distal femur, and proximal tibia using a user defined region of interest (ROI). • Micro-CT imaging protocol. The fixed left tibiae were scanned with micro-CT scanner (Explore Locus SP micro CT Scanner, GE Healthcare). The tibias were placed in a water filled specimen tube in a firmed position such that the main axis was kept as parallel as possible to the Z-axis of the micro-CT image coordinate system. The reconstructed tibia images were analyzed with MicroView 2.0 software (GE Healthcare, London, ON) in two and three dimensions. • Three-dimensional trabecular bone measurements. Three dimensional bone analyses were conducted using three selected ROIs using MicroView 2.0 analysis software. On 3D analysis, the tissue volume (3D-TV, mm3) and trabecular bone volume (3D-BV, mm3) were measured directly, and the fractional trabecular bone volume (3D-BV/TV, %) was calculated. […] Another parameter obtained is the structure model index (SMI). The SMI represented the plate-rod characteristics of trabecular structure. In this measure, a negative number is indicative of a plate-like structure containing holes, 0 represents an ideal plate-like structure while 3 represents the ideal rod (cylindrical) structure. Larger SMI values indicate that trabecular structure contains a more rod-like structure in older or diseased bone. • Three-dimensional isosurface. A 3-D isosurface image of each tibia was obtained by a volume-rendering function in MicroView to qualitatively examine the erosive damage in the bone surface. • Two-dimensional subchondral bone analysis. Three coronal sections of proximal tibia were obtained from each 3-D reconstructed tibia image: anterior, central, and posterior (1 mm apart). The subchondral trabecular bone structure and connectivity in the epiphyseal region of the proximal tibia was analyzed using an image processing and analysis system (Quantimet 570, Leica) on the 2-D micro-CT images.
# [3] = SCW + GlcNBu High, lateral epiphysis of proximal tibia
# [4] = SCW + GlcNBu High, medial epiphysis of proximal tibia
# [5] = SCW + GlcNBu High, metaphysis of proximal tibia
# [6] = SCW + GlcNBu Low, lateral epiphysis of proximal tibia
# [7] = SCW + GlcNBu Low, medial epiphysis of proximal tibia
# [8] = SCW + GlcNBu Low, metaphysis of proximal tibia
smiles,measurement,setting,value
"CCCC(=O)N[C@H]1C(O)O[C@H](CO)[C@@H](O)[C@@H]1O (stereo partly drawn) [GlcNBu, N-butyryl-D-glucosamine]",BMD of the spines vs glucose-fed,ovariectomised rats; data not shown,the differences were not reach statistical significance
same,femoral BMD (global) plateau vs control (glucose-fed) rats,"ovariectomised rats; plateau after 4 months, p<0.05",significantly higher
same,femoral wet weight,[1],increases femoral wet weight
same,plasma IGF-1 concentration,[2],significant difference
same,correction in SMI values compared to the untreated group,"SCW-arthritis rats; GlcNBu treated groups, three tested areas",15-33%
same,Trabecular Bone Volume,SCW-arthritis rats; [3],36.9 ± 3.7%
same,Trabecular Number,SCW-arthritis rats; [3],6.0 ± 0.6
same,Trabecular Thickness,SCW-arthritis rats; [3],0.054 ± 0.008 mm
same,Trabecular Bone Volume,SCW-arthritis rats; [4],36.3 ± 4.8%
same,Trabecular Number,SCW-arthritis rats; [4],5.1 ± 0.7
same,Trabecular Thickness,SCW-arthritis rats; [4],0.066 ± 0.014 mm
same,Trabecular Bone Volume,SCW-arthritis rats; [5],32.6 ± 4.7%
same,Trabecular Number,SCW-arthritis rats; [5],8.2 ± 1.5
same,Trabecular Thickness,SCW-arthritis rats; [5],0.034 ± 0.004 mm
same,Trabecular Bone Volume,SCW-arthritis rats; [6],33.7 ± 2.7%
same,Trabecular Number,SCW-arthritis rats; [6],5.8 ± 0.5
same,Trabecular Thickness,SCW-arthritis rats; [6],0.052 ± 0.008 mm
same,Trabecular Bone Volume,SCW-arthritis rats; [7],33.1 ± 3.0%
same,Trabecular Number,SCW-arthritis rats; [7],5.0 ± 0.4
same,Trabecular Thickness,SCW-arthritis rats; [7],0.062 ± 0.011 mm
same,Trabecular Bone Volume,SCW-arthritis rats; [8],34.4 ± 9.4%
same,Trabecular Number,SCW-arthritis rats; [8],7.7 ± 1.3
same,Trabecular Thickness,SCW-arthritis rats; [8],0.034 ± 0.005 mm
same,"trabecular bone volume, trabecular number and thickness decreases in arthritis","SCW-arthritis rats; SCW-arthritis rats, GlcNBu 20 and 200 mg/kg/day, 2D and 3D images",corrected by GlcNBu treatment in a dose dependent manner
same,trabecular separation increase in SCW group,"SCW-arthritis rats; SCW-arthritis rats, GlcNBu treatment",significantly reduced
same,increase in metaphyseal trabecular volume from Group2 to the GlcNBu treated groups,"SCW-arthritis rats; SCW-arthritis rats, low and high dose groups, p<0.05",12%
